Our source for the Ki values is US7705009B2, “4-aminopyrimidine-5-thione derivatives” (Hoffman-La Roche Inc., priority 2005, dated 2010).

As usually defined, the Ki is a dissociation constant, usually derived from enzyme kinetics or from competition with a known ligand.

Molecules are shown by their SMILES.

What all share (type): biochemical
Assay [1] deals with human cyclin E-CDK2 (Homo sapiens, UniProt P24941). In words: CDK2 HTRF kinase assay (Ki measurement). The following applies: HTRF assay, ATP at 3x Km; read-out: Ki CDK2. As to the method: (§1) To determine inhibition of Cdk4, Cdk2 and Cdk1 activity, kinase assays were conducted using FlashPlate™ assays (NEN™-Life Science Products). FlashPlate assays were performed using recombinant human cyclin B-CDK1, human cyclin E-CDK2 or human cyclin D1-CDK4 complexes. GST-cyclinE (GST-cycE), CDK2, GST-cyclinB (GST-cycB), CDK1, GST-CDK4 and cyclin D1 (cycD1) cDNA clones in baculovirus vectors were provided by Dr. W. Harper at the Baylor College of Medicine, Houston, Tex.
(§2) Alternatively, inhibition activity may be measured using Ki. […] These were done in 96-well format and read in 384-well plate format. The assays were run at 3× their respective Kms for ATP.
(§3) Twenty microliters were added to the wells of a 96-well plate. […] Blank wells without CDK4 were included. The plates were incubated at 37° C. for 30 minutes with shaking. […] After 30 minutes at 37° C., 15 μl/well of 3 nM Lance-Eu-W1024 labeled anti-rabbit IgG and 60 nM Allophycocyanin conjugated anti-His6 (PerkinElmer Life Sciences) in 25 mM Hepes, pH 7.0, 0.5 mg/ml BSA were added. Following a one hour incubation at 37 deg C., 35 μl of each well, in duplicate, were transferred to 384-well black plates. The plates were read using either ViewLux or Victor V readers (PerkinElmer Life Sciences) using an excitation wavelength of 340 nm and dual emission wavelengths of 615 nm and 665 nm.
(§4) The CDK1 and CDK2 assays were similarly run except for small differences in reagent and protein concentrations:
The compound and enzyme buffers for both assays contained 10 mM MgCl2.
On the technique in general: TR-FRET usually uses a lanthanide donor and a delayed reading to cut background.

Assay [2] addresses human cyclin B-CDK1 (Homo sapiens, UniProt P06493). In words: CDK1 HTRF kinase assay (Ki measurement). Particulars: ATP at 3x Km. How it is done: as §1, §2
as §3, with “nm. […] For ATP competitive inhibitors, the Ki values were calculated according to the following equation: Ki=IC50/(1+S/Km) where S refers to the substrate concentration and Km refers to the Michaelis-Menten constant.” for “nm.”
as §4
The compound and enzyme buffers for both assays contained 10 mM MgCl2. […] CDK1 at a reagent concentration of 0.15 ng/ul and CDK2 at a reagent concentration of 0.06 ng/ul were used.

The target of assay [3] is human cyclin D1-CDK4 (Homo sapiens, UniProt P11802). Briefly: CDK4 HTRF kinase assay (Ki measurement). The following applies: ATP at 3x Km. How it is done:
To determine inhibition of Cdk4, Cdk2 and Cdk1 activity, kinase assays were conducted using FlashPlateTM assays (NENTM-Life Science Products). […] W. Harper at the Baylor College of Medicine, Houston, Tex. Proteins were co-expressed in High FiveTM insect cells and the complex was purified on glutathione Sepharose resin (Pharmacia, Piscataway, N.J.) as previously described (Harper, J. W. et al. Cell 1993, 75, 805-816). A 6×-Histidine tagged […]) was used as the substrate for the cycD1-CDK4, cycB-CDK1 and the cycE-CDK2 assays (the expression plasmid was provided by Dr. Veronica Sullivan, Department of Molecular Virology, Roche Research Centre, Welwyn Garden City, United Kingdom). The Rb protein is a natural substrate for phosphorylation by CDK4, CDK2 and CDK1 (see Herwig and Strauss Eur. J. Biochem. Vol. 246 (1997) pp. 581-601 and the references cited therein). Alternatively, inhibition activity may be measured using Ki. Using the protein constructs described above in Example 19A above, CDK1, CDK2, and CDK4 HTRF assays were set up. These were done in 96-well format and read in 384-well plate format. The assays were run at 3× their respective Kms for ATP. In the CDK4 assay, test compounds were diluted to 3× their final concentrations in 25 mM Hepes, pH 7.0, 6.25 mM MgCl2, 1.5 mM DTT, 135 μM ATP. The DMSO concentration was no greater than 4.76%. Twenty microliters were added to the wells of a 96-well plate. The kinase reaction was initiated by the addition of 40 μl/well of a solution containing 0.185 μM Rb and 2.25 μg/ml CDK4 in 25 mM Hepes, pH 7.0, 6.25 mM MgCl2, 0.003% Tween-20, 0.3 mg/ml BSA, 1.5 mM DTT. Blank wells without CDK4 were included. The plates were incubated at 37° C. for 30 minutes with shaking. The kinase reaction was terminated by the addition of 15 μl/well of 1.6 uM anti-phospho-Rb ([…]) antibody (Cell Signaling Inc.) in 25 mM Hepes, pH 7.0, 24 mM EDTA, 0.2 mg/ml BSA. After 30 minutes at 37° C., 15 μl/well of 3 nM Lance-Eu-W1024 labeled anti-rabbit IgG and 60 nM Allophycocyanin conjugated anti-His6 (PerkinElmer Life Sciences) in 25 mM Hepes, pH 7.0, 0.5 mg/ml BSA were added. Following a one hour incubation at 37 deg C., 35 μl of each well, in duplicate, were transferred to 384-well black plates. The plates were read using either ViewLux or Victor V readers (PerkinElmer Life Sciences) using an excitation wavelength of 340 nm and dual emission wavelengths of 615 nm and 665 nm. IC50 values (the concentration of test compounds reducing the assay control fluorescence read-out by 50%) were first calculated from net readings at 665 nm, normalized for europium readings at 615 nm. For ATP competitive inhibitors, the Ki values were calculated according to the following equation: […]

human cyclin B-CDK1, sequence (P06493 whole entry): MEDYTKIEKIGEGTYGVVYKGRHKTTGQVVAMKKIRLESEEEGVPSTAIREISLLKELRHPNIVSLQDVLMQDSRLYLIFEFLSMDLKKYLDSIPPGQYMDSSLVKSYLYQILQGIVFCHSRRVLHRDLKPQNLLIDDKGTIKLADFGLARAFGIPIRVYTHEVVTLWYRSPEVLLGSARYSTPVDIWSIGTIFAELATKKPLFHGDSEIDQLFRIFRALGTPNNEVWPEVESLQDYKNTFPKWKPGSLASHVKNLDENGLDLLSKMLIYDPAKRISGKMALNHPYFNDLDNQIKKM
human cyclin B-CDK1, sequence (P14635 whole entry partner): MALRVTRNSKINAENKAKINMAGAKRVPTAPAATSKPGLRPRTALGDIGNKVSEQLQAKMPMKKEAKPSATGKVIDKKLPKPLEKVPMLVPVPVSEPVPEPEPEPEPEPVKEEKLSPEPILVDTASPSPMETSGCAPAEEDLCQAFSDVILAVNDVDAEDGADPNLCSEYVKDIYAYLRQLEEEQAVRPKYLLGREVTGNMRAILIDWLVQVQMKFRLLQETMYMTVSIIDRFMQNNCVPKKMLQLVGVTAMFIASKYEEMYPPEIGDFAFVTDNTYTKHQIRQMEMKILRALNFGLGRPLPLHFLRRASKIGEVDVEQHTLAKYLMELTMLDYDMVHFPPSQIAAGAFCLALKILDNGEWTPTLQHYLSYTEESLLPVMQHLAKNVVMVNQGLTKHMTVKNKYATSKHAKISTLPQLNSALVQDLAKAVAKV
human cyclin D1-CDK4, sequence (P11802 whole entry): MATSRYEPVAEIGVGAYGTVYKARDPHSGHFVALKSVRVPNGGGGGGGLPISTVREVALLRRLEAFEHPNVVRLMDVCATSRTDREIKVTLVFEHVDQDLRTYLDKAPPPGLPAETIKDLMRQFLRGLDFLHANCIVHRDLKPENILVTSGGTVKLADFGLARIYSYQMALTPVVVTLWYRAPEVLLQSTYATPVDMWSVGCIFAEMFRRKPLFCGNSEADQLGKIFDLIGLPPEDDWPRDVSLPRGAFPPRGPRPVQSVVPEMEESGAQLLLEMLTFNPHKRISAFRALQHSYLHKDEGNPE
human cyclin D1-CDK4, sequence (P24385 whole entry partner): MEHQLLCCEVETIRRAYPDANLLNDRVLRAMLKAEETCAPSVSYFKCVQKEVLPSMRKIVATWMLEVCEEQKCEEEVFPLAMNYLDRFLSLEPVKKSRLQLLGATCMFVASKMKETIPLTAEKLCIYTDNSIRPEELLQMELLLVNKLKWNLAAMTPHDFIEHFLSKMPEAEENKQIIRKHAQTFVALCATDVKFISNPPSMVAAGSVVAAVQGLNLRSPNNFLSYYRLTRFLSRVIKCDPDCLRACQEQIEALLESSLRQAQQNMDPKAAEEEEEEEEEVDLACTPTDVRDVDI

`CS(=O)(=O)N1CCC(Nc2ncc(C(=S)c3c(F)c(F)cc4ncoc34)c(N)n2)CC1` [Example 7, [4-Amino-2-(1-methanesulfonyl-piperidin-4-ylamino)-pyrimidin-5-yl]-(5,6-difluoro-benzooxazol-7-yl)-methanethione]: the figures for the Ki in assay [1], in assay [2] and in assay [3] were 16 nM, 6 nM and 5 nM, respectively.
On to `COc1ccc(F)cc1C(=S)c1cnc(NCCCNS(C)(=O)=O)nc1N` [Example 8, N-{3-[4-Amino-5-(5-fluoro-2-methoxy-thiobenzoyl)-pyrimidin-2-ylamino]-propyl}-methanesulfonamide], for which the inhibition constant (Ki) in assay [1] was determined as 65 nM; in assay [2], 89 nM; in assay [3], 37 nM.
In the case of `COc1ccc(F)c(F)c1C(=S)c1cnc(NC2CCN(S(=O)(=O)CCCN3CCOCC3)CC2)nc1N` [Example 9, {4-Amino-2-[1-(3-morpholin-4-yl-propane-1-sulfonyl)-piperidin-4-ylamino]-pyrimidin-5-yl}(2,3-difluoro-6-methoxy-phenyl)-methanethione], the Ki turned out to be 1 nM in assay [1] and 14 nM in assay [2].
The like results for `COc1ccc(F)c(F)c1C(=S)c1cnc(NC2CCN(S(=O)(=O)c3ccccn3)CC2)nc1N` [Example 10, {4-Amino-2-[1-(pyridine-2-sulfonyl)-piperidin-4-ylamino]-pyrimidin-5-yl}-(2,3-difluoro-6-methoxy-phenyl)-methanethione] were, in that order, 1 nM and 3 nM.
`CS(=O)(=O)N1CCC(Nc2ncc(C(=S)c3cccs3)c(N)n2)CC1` [Example 11, [4-Amino-2-(1-methanesulfonyl-piperidin-4-ylamino)-pyrimidin-5-yl]-thiophen-2-yl-methanethione]: the Ki in assay [1] is 12 nM; in assay [2], 43 nM; in assay [3], 10 nM.
Regarding `COc1ccc(F)c(F)c1C(=S)c1cnc(Nc2ccc(S(C)(=O)=O)cc2)nc1N` [Example 12, [4-Amino-2-(4-methanesulfonyl-phenylamino)-pyrimidin-5-yl]-(2,3-difluoro-6-methoxy-phenyl)-methanethione], the inhibition constant (Ki) came out at 1 nM in assay [1], 3 nM in assay [2] and 7 nM in assay [3].
With `CS(=O)(=O)N1CCC(Nc2ncc(C(=S)c3ccccc3)c(N)n2)CC1` [Example 16, [4-Amino-2-(1-methanesulfonyl-piperidin-4-ylamino)-pyrimidin-5-yl]-phenyl-methanethione], the Ki in assay [1] is 10 nM; in assay [2], 27 nM; in assay [3], 15 nM.
With `COc1ccc(F)cc1C(=S)c1cnc(NC2CCN(C(=O)OC(C)(C)C)CC2)nc1N` [Example 17, 4-[4-Amino-5-(5-fluoro-2-methoxy-thiobenzoyl)-pyrimidin-2-ylamino]-piperidine-1-carboxylic acid tert-butyl ester], the Ki was found to be 195 nM in assay [1] and 261 nM in assay [2].
As for `COc1ccc(F)c(F)c1C(=S)c1cnc(NC2CCN(S(C)(=O)=O)C2)nc1N` (centres unmarked) [Example 18, [4-Amino-2-(1-methanesulfonyl-pyrrolidin-3-ylamino)-pyrimidin-5-yl]-(2,3-difluoro-6-methoxy-phenyl)-methanethione], the figures for the Ki in assay [1] and in assay [3] were 1 nM and 2.8 nM, respectively.
